According to patent US8889722B2, “Pharmaceutical composition containing optically active compound having thrombopoietin receptor agonist activity, and intermediate therefor” (Shionogi & Co., Ltd., priority 2007, dated 2014):

biological target: T1, human TPO receptor (Homo sapiens, UniProt P40238); assay: TPO receptor responsiveness: proliferation of TPO-dependent BaF/hTPOR cells (WST-1); type: cell-based; conditions: 20 hours culture, WST-1 absorption at 450 nm, concentration exhibiting half-maximum responsiveness of human TPO, read-out: ED50 (the source's name)
T1 construct: expressed in transfected cells; host or cells: BaF-B03 (mouse pro-B cell line), strain BaF/hTPOR
T1 sequence (P40238 26-635): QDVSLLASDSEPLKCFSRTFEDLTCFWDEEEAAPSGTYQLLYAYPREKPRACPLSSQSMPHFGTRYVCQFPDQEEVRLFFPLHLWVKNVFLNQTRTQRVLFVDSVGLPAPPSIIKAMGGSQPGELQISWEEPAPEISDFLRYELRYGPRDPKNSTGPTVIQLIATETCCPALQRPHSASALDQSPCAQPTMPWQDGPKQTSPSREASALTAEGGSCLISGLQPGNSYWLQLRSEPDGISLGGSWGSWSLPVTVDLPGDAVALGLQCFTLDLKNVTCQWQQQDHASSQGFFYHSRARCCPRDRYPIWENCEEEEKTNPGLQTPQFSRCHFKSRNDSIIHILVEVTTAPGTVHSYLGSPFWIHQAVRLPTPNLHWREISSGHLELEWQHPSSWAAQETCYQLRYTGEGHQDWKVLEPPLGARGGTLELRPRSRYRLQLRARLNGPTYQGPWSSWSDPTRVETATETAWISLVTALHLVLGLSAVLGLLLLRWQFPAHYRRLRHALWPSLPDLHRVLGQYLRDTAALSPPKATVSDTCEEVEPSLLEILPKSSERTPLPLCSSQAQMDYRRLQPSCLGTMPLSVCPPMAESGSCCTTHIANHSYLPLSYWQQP
Procedure: TPO receptor responsiveness of the compound represented by the formula (I) was measured using TPO-dependent cell strain BaF/hTPOR made by introducing a human TPO receptor gene into a BaF-B03 cell according to the method described in Collins et al., J. Cell. Physiol., 137: 293-298 (1988). A nucleotide sequence of a gene encoding thrombopoietin receptor is described in Vigon et al., Proc. Natl. Acad. Sci, 89:5640-5644 (1992). […] A BAF/hTPOR cell proliferated in a RPMI medium with 10% WEHI-3 culture solution added thereto was washed with PBS once, suspended in a RPMI medium with no WHEHI-3 culture solution added thereto, and cells were seeded on a 96-well microplate at a 5×10^4/well, and the present compound or TPO was added thereto. After cultured at 37° C. for 20 hours under 5% CO2 atmosphere, a WST-1 reagent (manufactured by Takara Shuzo, Co., Ltd) being a cell proliferation determination reagent was added, and absorption at 450 nm was measured after 4 hours.

Row | Compound | EC50 [nM]
1 | CCCCCC[C@@H](OC)c1cccc(-c2csc(NC(=O)c3cc(Cl)c(/C=C(\C)C(=O)O)c(Cl)c3)n2)c1OC [Compound C-1A, (R)-(E)-3-(2,6-dichloro-4-{4-[2-methyloxy-3-(1-methyloxyheptyl)phenyl]thiazol-2-ylcarbamoyl}phenyl)-2-methylacrylic acid] | 3.09
2 | CCCCCCO[C@H](C)c1cccc(-c2csc(NC(=O)c3cc(Cl)c(/C=C(\C)C(=O)O)c(Cl)c3)n2)c1OC [Compound C-3A, (R)-(E)-3-(2,6-dichloro-4-{4-[3-(1-hexyloxyethyl)-2-methyloxyphenyl]thiazol-2-ylcarbamoyl}phenyl)-2-methylacrylic acid] | 1.4
3 | CCCO[C@H](c1cccc(-c2csc(NC(=O)c3cc(Cl)c(/C=C(\C)C(=O)O)c(Cl)c3)n2)c1OC)C(C)(C)C [Compound C-9B, (S)-(E)-3-(2,6-dichloro-4-{4-[3-(2,2-dimethyl-1-propyloxypropyl)-2-methyloxyphenyl]thiazol-2-ylcarbamoyl}phenyl)-2-methylacrylic acid] | 0.09

The next lines start with the values.

Row | EC50 [nM] | Compound
4 | 2.08 | CCCCCC[C@H](OC)c1cccc(-c2csc(NC(=O)c3cc(Cl)c(/C=C(\C)C(=O)O)c(Cl)c3)n2)c1OC [Compound C-1B, (S)-(E)-3-(2,6-dichloro-4-{4-[2-methyloxy-3-(1-methyloxyheptyl)-phenyl]thiazol-2-ylcarbamoyl}phenyl)-2-methylacrylic acid]
5 | 1.09 | CCCCCCO[C@@H](C)c1cccc(-c2csc(NC(=O)c3cc(Cl)c(/C=C(\C)C(=O)O)c(Cl)c3)n2)c1OC [Compound C-3B, (S)-(−)-(E)-3-(2,6-dichloro-4-{4-[3-(1-hexyloxyethyl)-2-methyloxyphenyl]thiazol-2-ylcarbamoyl}phenyl)-2-methylacrylic acid]

test system: not given; assay: not given; conditions: not given

Row | melting point [°C] | Compound
6 | 162 to 164 | CCCCCC[C@H](OC)c1cccc(-c2csc(NC(=O)c3cc(Cl)c(/C=C(\C)C(=O)O)c(Cl)c3)n2)c1OC [Compound C-1B, (S)-(E)-3-(2,6-dichloro-4-{4-[2-methyloxy-3-(1-methyloxyheptyl)-phenyl]thiazol-2-ylcarbamoyl}phenyl)-2-methylacrylic acid]
